A short description of data set [1]: Cytotoxicity against HEK293T cells incubated for 1 hr by fluorescence based microplate reader assay. The data set is classed as toxicity, cell-based, HEK-293T. The note with it: human.
The subject of data set [2] is Pseudomonas aeruginosa. The experiment in a line: Antibacterial activity against Pseudomonas aeruginosa 119 incubated for 18 to 24 hrs by broth microdilution method. The data set is classed as functional. The note with it: time 18-24 hrs. A general note: Dilution methods test growth across graded concentrations, often in twofold steps.
Data set [3] relates to Staphylococcus aureus. Kind of data set: Antibacterial activity against Staphylococcus aureus 794 incubated for 18 to 24 hrs by broth microdilution method. The data set is classed as functional. The note with it: time 18-24 hrs.
The subject of data set [4] is Escherichia coli. The experiment in a line: Antibacterial activity against Escherichia coli 780 incubated for 18 to 24 hrs by broth microdilution method. The note with it: time 18-24 hrs. The data set is classed as functional.
Data set [5] concerns Staphylococcus aureus. Kind of data set: Antibacterial activity against Staphylococcus aureus ATCC 25923 incubated for 18 to 24 hrs by broth microdilution method. The data set is classed as functional. The note with it: time 18-24 hrs.
Data set [6] can be described thus: Hemolytic activity in mouse erythrocyte incubated for 1 hr by microplate reader assay. The data set is classed as toxicity, cell-based.
The test system of a further data set is Bacillus subtilis. The experiment in a line: Antibacterial activity against Bacillus subtilis ATCC 23857 incubated for 18 to 24 hrs by broth microdilution method. The note with it: time 18-24 hrs. The format is functional.
For data set [7], the system named is Staphylococcus aureus. The experiment in a line: Antibacterial activity against methicillin resistant Staphylococcus aureus 48 incubated for 18 to 24 hrs by broth microdilution method. The data set is classed as functional. The note with it: time 18-24 hrs.
Data set [8] deals with Pseudomonas aeruginosa. Kind of data set: Antibacterial activity against Pseudomonas aeruginosa ATCC 27853 incubated for 18 to 24 hrs by broth microdilution method. The format is functional. The note with it: time 18-24 hrs.
The next data set concerns Klebsiella pneumoniae. The experiment in a line: Antibacterial activity against Klebsiella pneumoniae ATCC 700603 incubated for 18 to 24 hrs by broth microdilution method. The note with it: time 18-24 hrs. The data set is classed as functional.
Data set [9] has as its system Escherichia coli. Kind of data set: Antibacterial activity against Escherichia coli 850 incubated for 18 to 24 hrs by broth microdilution method. The data set is classed as functional. The note with it: time 18-24 hrs.
The next data set concerns Acinetobacter baumannii. Kind of data set: Antibacterial activity against Acinetobacter baumannii ATCC 19606 incubated for 18 to 24 hrs by broth microdilution method. The note with it: time 18-24 hrs. The data set is classed as functional.
Data set [10] relates to Staphylococcus aureus. The experiment in a line: Antibacterial activity against methicillin resistant Staphylococcus aureus ATCC 33591 incubated for 18 to 24 hrs by broth microdilution method. The note with it: time 18-24 hrs. The format is functional.
The subject of data set [11] is Escherichia coli. The experiment in a line: Antibacterial activity against Escherichia coli ATCC 25922 incubated for 18 to 24 hrs by broth microdilution method. The format is functional. The note with it: time 18-24 hrs.

≈ marks a conversion by molar mass, not a printed value. Non-standard residues stand in square brackets, D forms with d. Residues, ends and D or L forms follow the SMILES beside them. pY = N[C@@H](Cc1ccc(OP(=O)(O)O)cc1)C(=O)O; pT = C[C@@H](OP(=O)(O)O)[C@H](N)C(=O)O; 2Nal = N[C@@H](Cc1ccc2ccccc2c1)C(=O)O

For orientation: CC50 means the concentration at which the toxic effect on the cells reaches its halfway point. Lower therefore signals harm at low concentration. The MIC is the lowest concentration that inhibits growth of the organism. Higher therefore signals a need for much substance. On to `CC(C)C[C@H](NC(=O)[C@H](CC(C)C)NC(=O)[C@H](Cc1ccc(OP(=O)(O)O)cc1)NC(=O)[C@H](CCCCN)NC(=O)[C@H](Cc1c[nH]c2ccccc12)NC(=O)[C@H](CCCNC(=N)N)NC(=O)[C@H](CCCCN)NC(=O)[C@H](CC(C)C)NC(=O)[C@H](CC(C)C)NC(=O)CN)C(N)=O` (H-GLLKRWK[pY]LL-NH2), for which the CC50 at 1 h in data set [1] was greater than 128 µM. In addition, the MIC is 128 µM (≈ 175 µg/mL) with Pseudomonas aeruginosa [2]; 32 µM (≈ 43.8 µg/mL) with Staphylococcus aureus [3]; 64 µM (≈ 87.6 µg/mL) in the data set on Escherichia coli [4]; greater than 128 µM in the data set on Staphylococcus aureus [5]; 64 µM (≈ 87.6 µg/mL) against Bacillus subtilis; greater than 128 µM in the data set with Staphylococcus aureus [7]. In addition, the MIC in the data set on Pseudomonas aeruginosa [8] was 128 µM (≈ 175 µg/mL); in the data set with Klebsiella pneumoniae, 128 µM (≈ 175 µg/mL); against Escherichia coli [9] it was 64 µM (≈ 87.6 µg/mL); with Acinetobacter baumannii it was 64 µM (≈ 87.6 µg/mL); in the data set on Staphylococcus aureus [10], greater than 128 µM; against Escherichia coli [11] it was 64 µM (≈ 87.6 µg/mL). Besides, the MHC in data set [6] is greater than 256 µM.
Compound `CC(C)C[C@H](NC(=O)[C@H](CC(C)C)NC(=O)[C@@H](NC(=O)[C@H](CCCCN)NC(=O)[C@H](Cc1ccc2ccccc2c1)NC(=O)[C@H](CCCNC(=N)N)NC(=O)[C@H](CCCCN)NC(=O)[C@H](CC(C)C)NC(=O)[C@H](CC(C)C)NC(=O)CN)[C@@H](C)O)C(N)=O` (H-GLLKR[2Nal]KTLL-NH2) had a CC50 at 1 h in data set [1] of 177 µM. In addition, the MIC in the data set on Pseudomonas aeruginosa [2] turned out to be 16 µM (≈ 19.8 µg/mL); with Staphylococcus aureus [3] it was 8 µM (≈ 9.9 µg/mL); against Escherichia coli [4], 8 µM (≈ 9.9 µg/mL); against Staphylococcus aureus [5], 16 µM (≈ 19.8 µg/mL); in the data set with Bacillus subtilis, 4 µM (≈ 4.95 µg/mL); in the data set with Staphylococcus aureus [7] it was 16 µM (≈ 19.8 µg/mL). Besides, the MIC against Pseudomonas aeruginosa [8] came out at 4 µM (≈ 4.95 µg/mL); in the data set on Klebsiella pneumoniae it was 16 µM (≈ 19.8 µg/mL); with Escherichia coli [9], 16 µM (≈ 19.8 µg/mL); in the data set on Acinetobacter baumannii it was 32 µM (≈ 39.6 µg/mL); with Staphylococcus aureus [10] it was 16 µM (≈ 19.8 µg/mL); with Escherichia coli [11], 16 µM (≈ 19.8 µg/mL). Moreover, the MHC in data set [6] is greater than 256 µM.
For `CC(C)C[C@H](NC(=O)[C@H](CC(C)C)NC(=O)[C@@H](NC(=O)[C@H](CCCCN)NC(=O)[C@H](Cc1ccc2ccccc2c1)NC(=O)[C@H](CCCNC(=N)N)NC(=O)[C@H](CCCCN)NC(=O)[C@H](CC(C)C)NC(=O)[C@H](CC(C)C)NC(=O)CN)[C@@H](C)OP(=O)(O)O)C(N)=O` (H-GLLKR[2Nal]K[pT]LL-NH2), the CC50 at 1 h in data set [1] was greater than 128 µM. For the same compound, the MIC was 128 µM (≈ 169 µg/mL) in the data set with Pseudomonas aeruginosa [2]; 128 µM (≈ 169 µg/mL) against Staphylococcus aureus [3]; greater than 128 µM against Escherichia coli [4]; greater than 128 µM in the data set with Staphylococcus aureus [5]; 128 µM (≈ 169 µg/mL) against Bacillus subtilis; greater than 128 µM with Staphylococcus aureus [7]. The MIC against Pseudomonas aeruginosa [8] is 128 µM (≈ 169 µg/mL); against Klebsiella pneumoniae, greater than 128 µM; with Escherichia coli [9], 128 µM (≈ 169 µg/mL); against Acinetobacter baumannii, 128 µM (≈ 169 µg/mL); against Staphylococcus aureus [10], greater than 128 µM; against Escherichia coli [11], greater than 128 µM. The MHC in data set [6] is greater than 256 µM.
On to `O=C(O)c1cn(C2CC2)c2cc(N3CCNCC3)c(F)cc2c1=O` [CIPROFLOXACIN], for which the MIC against Staphylococcus aureus [5] was 16 µM (≈ 5.3 µg/mL); in the data set with Bacillus subtilis, 2 µM (≈ 0.663 µg/mL); with Pseudomonas aeruginosa [8], 4 µM (≈ 1.33 µg/mL); against Acinetobacter baumannii, 16 µM (≈ 5.3 µg/mL); against Escherichia coli [11], less than 1 µM.
As to `C[C@@H](O)[C@H]1C(=O)N2C(C(=O)O)=C(S[C@@H]3CN[C@H](C(=O)N(C)C)C3)[C@H](C)[C@H]12` [MEROPENEM], the MIC with Pseudomonas aeruginosa [2] was 8 µM (≈ 3.07 µg/mL); against Staphylococcus aureus [3], less than 1 µM; in the data set on Escherichia coli [4], less than 1 µM; against Staphylococcus aureus [5] it was less than 1 µM; in the data set on Bacillus subtilis it was less than 1 µM; against Staphylococcus aureus [7] it was 128 µM (≈ 49.1 µg/mL). In addition, the MIC was 1 µM (≈ 0.383 µg/mL) against Pseudomonas aeruginosa [8]; 2 µM (≈ 0.767 µg/mL) in the data set on Klebsiella pneumoniae; less than 1 µM in the data set on Escherichia coli [9]; 2 µM (≈ 0.767 µg/mL) in the data set with Acinetobacter baumannii; 64 µM (≈ 24.5 µg/mL) against Staphylococcus aureus [10]; less than 1 µM in the data set with Escherichia coli [11].
Take `COc1cccc(OC)c1C(=O)N[C@@H]1C(=O)N2[C@@H]1SC(C)(C)[C@@H]2C(=O)O` [METHICILLIN]: the MIC against Pseudomonas aeruginosa [2] was greater than 128 µM; in the data set on Staphylococcus aureus [3] it was greater than 128 µM; against Escherichia coli [4] it was greater than 128 µM; in the data set with Staphylococcus aureus [5], 8 µM (≈ 3.04 µg/mL); with Bacillus subtilis it was less than 1 µM; with Staphylococcus aureus [7], greater than 128 µM. Moreover, the MIC in the data set on Pseudomonas aeruginosa [8], against Klebsiella pneumoniae, against Escherichia coli [9], against Acinetobacter baumannii, against Staphylococcus aureus [10] and against Escherichia coli [11] was greater than 128 µM in each case.

(Values after ChEMBL document CHEMBL6092167, “Phosphorylation as an Effective Tool to Improve Stability and Reduce Toxicity of Antimicrobial Peptides” (J Med Chem, 2024).)
